Laboratory results from patent US8906414B1, “Methods and compositions for improving bioavailability of epigallocatechin gallate (EGCG)” (University of South Florida, priority 2009, dated 2014).

How the values were obtained:
[1] = Total EGCG concentration in blood and brain tissues after 4 weeks of treatment; format: in vivo; settings: after 4 weeks of treatment at a maximum dose (300 mg/kg)
Water solubility of EGCG = format: physicochemical
SweAPP N2a cells = settings: free EGCG (Rezai-Zadeh et al., 2005); cited from earlier work
[2] = oral dose of 800 mg/70 kg/day; cited from earlier work

O=C(O[C@@H]1Cc2c(O)cc(O)cc2O[C@@H]1c1cc(O)c(O)c(O)c1)c1cc(O)c(O)c(O)c1 [EGCG, (−)-epigallocatechin-3-gallate]
total EGCG concentration in blood and brain tissues [1]: 1000 to 1300 ng/mL
water solubility (Water solubility of EGCG): poorly water soluble
EGCG concentration necessary for promoting APP α-secretase cleavage (SweAPP N2a cells): 1000 to 2000 ng/mL
EGCG in human plasma [2]: approximately 400 ng/ml
